The results in this text go back to patent publication US20100105651A1, “ANTAGONISTS OF SNS SODIUM CHANNELS” (priority 2005, published 2010).

The IC50 is the concentration that gives 50% inhibition.

T1 sequence (Q9Y5Y9 whole entry): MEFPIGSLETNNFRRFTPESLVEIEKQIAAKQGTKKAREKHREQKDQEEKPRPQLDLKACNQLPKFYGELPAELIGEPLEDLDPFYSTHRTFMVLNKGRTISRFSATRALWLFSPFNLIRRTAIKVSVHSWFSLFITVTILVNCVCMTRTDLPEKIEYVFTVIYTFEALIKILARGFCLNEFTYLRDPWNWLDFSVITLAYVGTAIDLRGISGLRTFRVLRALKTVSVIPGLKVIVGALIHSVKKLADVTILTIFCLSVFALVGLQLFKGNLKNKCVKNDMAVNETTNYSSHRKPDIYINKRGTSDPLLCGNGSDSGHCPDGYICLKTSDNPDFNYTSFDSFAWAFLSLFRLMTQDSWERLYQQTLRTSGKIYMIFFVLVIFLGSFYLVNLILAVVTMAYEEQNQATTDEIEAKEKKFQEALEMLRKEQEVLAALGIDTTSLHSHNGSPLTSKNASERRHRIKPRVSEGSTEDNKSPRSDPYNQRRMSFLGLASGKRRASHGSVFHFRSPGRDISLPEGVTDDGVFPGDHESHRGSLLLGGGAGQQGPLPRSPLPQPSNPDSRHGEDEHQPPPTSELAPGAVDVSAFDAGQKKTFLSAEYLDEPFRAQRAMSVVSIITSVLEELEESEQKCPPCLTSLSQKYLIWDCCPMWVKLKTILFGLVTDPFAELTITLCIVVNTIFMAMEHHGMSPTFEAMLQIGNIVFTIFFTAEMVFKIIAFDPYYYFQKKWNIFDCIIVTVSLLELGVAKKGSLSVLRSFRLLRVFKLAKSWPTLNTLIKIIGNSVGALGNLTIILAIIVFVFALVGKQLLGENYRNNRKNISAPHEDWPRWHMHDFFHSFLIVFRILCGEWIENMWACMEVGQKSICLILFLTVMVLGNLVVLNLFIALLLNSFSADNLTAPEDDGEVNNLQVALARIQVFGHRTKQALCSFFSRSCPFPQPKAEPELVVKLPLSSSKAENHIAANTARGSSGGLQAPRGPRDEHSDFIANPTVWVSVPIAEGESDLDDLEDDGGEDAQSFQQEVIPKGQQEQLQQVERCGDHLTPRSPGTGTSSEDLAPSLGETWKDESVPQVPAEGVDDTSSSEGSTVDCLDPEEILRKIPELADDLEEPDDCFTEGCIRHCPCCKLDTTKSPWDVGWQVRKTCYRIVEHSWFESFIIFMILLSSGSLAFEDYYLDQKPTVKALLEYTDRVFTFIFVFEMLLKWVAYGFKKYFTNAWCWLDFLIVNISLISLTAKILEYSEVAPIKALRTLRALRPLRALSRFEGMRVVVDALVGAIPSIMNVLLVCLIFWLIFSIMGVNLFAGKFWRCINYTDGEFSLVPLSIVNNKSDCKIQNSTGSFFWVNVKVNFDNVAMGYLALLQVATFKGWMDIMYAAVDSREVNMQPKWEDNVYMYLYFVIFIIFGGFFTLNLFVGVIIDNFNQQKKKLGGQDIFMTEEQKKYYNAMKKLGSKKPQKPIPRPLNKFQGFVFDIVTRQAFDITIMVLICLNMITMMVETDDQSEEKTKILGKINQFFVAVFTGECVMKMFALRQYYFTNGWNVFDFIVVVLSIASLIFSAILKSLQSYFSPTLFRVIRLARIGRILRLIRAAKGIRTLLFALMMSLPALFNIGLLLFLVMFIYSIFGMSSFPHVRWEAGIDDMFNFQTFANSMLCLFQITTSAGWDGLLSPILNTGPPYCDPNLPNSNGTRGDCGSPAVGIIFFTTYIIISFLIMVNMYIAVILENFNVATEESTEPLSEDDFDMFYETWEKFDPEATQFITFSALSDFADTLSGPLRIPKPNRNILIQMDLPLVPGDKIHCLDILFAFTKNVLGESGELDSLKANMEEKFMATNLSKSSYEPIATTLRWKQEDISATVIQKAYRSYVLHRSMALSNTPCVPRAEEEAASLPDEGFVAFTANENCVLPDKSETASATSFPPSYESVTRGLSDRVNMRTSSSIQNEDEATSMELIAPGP

The first assay concerns the target T1, human NaV1.8 (hNaV1.8) ion channel (Homo sapiens, UniProt Q9Y5Y9).
T1 construct: expressed in transfected cells
In words: Inhibition of Human NaV1.8 stably expressed in SH-SY-5Y cells (membrane potential dye fluorescence assay). Type of assay: cell-based. Particulars: SH-SY-5Y cells stably expressing hNaV1.8; FLIPR membrane potential dye; 10 μM pyrethroid, 250 nM TTX; test range 100 μM-0.05 μM; read-out: hNav1.8 IC50. How it is done: Inhibition of Human NaV1.8 stably expressed in SH-SY-5Y cells
A SH-SY-5Y neuroblastoma cell line stably expressing the human NaV1.8 (hNaV1.8) ion channel was constructed. This cell line has been used to develop a medium to high throughput assay for determining the ability of test compounds to inhibit membrane depolarisation mediated via the hNaV1.8 channel.
SH-SY-5Y hNaV1.8 are grown in adherent monolayer culture using 50:50 Ham's F-12/EMEM tissue culture medium supplemented with 15% (v/v) foetal bovine serum; 2 mM L-glutamine, 1% NEAA and 600 μg·ml^−1 Geneticin sulphate. Cells are removed from the tissue culture flask using trypsin/EDTA and re-plated into black walled, clear bottom 96-well assay plates at 50,000 cells·well^−1 24 hours prior to assay.
On the day of assay the cell assay plates are washed to remove cell culture medium using a sodium free assay buffer (145 mM tetramethyl ammonium chloride; 2 mM calcium chloride; 0.8 mM magnesium chloride hexahydrate; 10 mM HEPES; 10 mM glucose; 5 mM potassium chloride, pH 7.4). Fluorescent membrane potential dye solution (FLIPR™ membrane potential dye, Molecular Devices Corporation), containing 10 μM of a pyrethroid to prevent channel inactivation and 250 nM tetrodotoxin (TTX) to reduce interference from TTX-sensitive sodium channels present in the cell line. Test compound, initially dissolved in dimethyl sulfoxide but further diluted in sodium free buffer, is added to achieve the final test concentration range of 100 μM-0.05 μM.
Cell plates are incubated for 30 minutes at room temperature to allow equilibration of dye and test compound. Plates are then transferred to a fluorescence plate reader for fluorescence measurement using an excitation wavelength of 530 nm whilst measuring fluorescence emission at 565 nm. […] Membrane depolarisation is registered by an increase in fluorescence emission at 565 nm.
The change in fluorescence seen in each test well upon the addition of sodium containing buffer is calculated relative to the baseline fluorescence for that well. This figure is then used for calculating the IC50 for each test compound.
As to `CC(c1ccc(Oc2ccccc2)cc1)N(C)C1CN(C(=O)Nc2ccc(C(F)(F)F)cc2)C1` (centres unmarked) [Example 90, 3-{Methyl-[1-(4-phenoxy-phenyl)-ethyl]-amino}-azetidine-1-carboxylic acid (4-trifluoromethyl-phenyl)-amide], the IC50 turned out to be 1.43 µM.

For the compound `CC(c1ccc(F)cc1)N(C)C1CN(C(=O)Nc2ccc(F)c(C(F)(F)F)c2)C1` (centres unmarked) [Example 83, 3-{[1-(4-Fluoro-phenyl)-ethyl]-methyl-amino}-azetidine-1-carboxylic acid (4-fluoro-3-trifluoromethyl-phenyl)-amide], the IC50 was 3.93 µM. Same read-out and setting: as for `O=C(Nc1ccc(Oc2ccccc2F)cc1)N1CC(NC2CCc3cc(F)ccc32)C1` (centres unmarked) [Example 14, 3-(5-Fluoro-indan-1-ylamino)-azetidine-1-carboxylic acid [4-(2-fluoro-phenoxy)-phenyl]-amide], the figure is 0.54 µM; as for `CC(c1ccc(F)cc1)N(C)C1CN(C(=O)Nc2cc(F)cc(C(F)(F)F)c2)C1` (centres unmarked) [Example 82, 3-{[1-(4-Fluoro-phenyl)-ethyl]-methyl-amino}-azetidine-1-carboxylic acid (3-fluoro-5-trifluoromethyl-phenyl)-amide], 5.73 µM; as for `CCCCOc1cccc(NC(=O)N2CC(NC(C)c3ccccc3C)C2)c1` (centres unmarked) [Example 68, 3-(1-o-Tolyl-ethylamino)-azetidine-1-carboxylic acid (3-butoxy-phenyl)-amide], 0.83 µM.

Regarding `O=C(Nc1ccc(Oc2ccc(F)cc2)cc1)N1CC(NC2CCc3cc(O)ccc32)C1` (centres unmarked) [Example 12, 3-(5-Hydroxy-indan-1-ylamino)-azetidine-1-carboxylic acid [4-(4-fluoro-phenoxy)-phenyl]-amide], the IC50 was determined as 1.35 µM. Take `CC(NC1CN(C(=O)Nc2ccc(Oc3ccc(F)cc3)cc2)C1)c1ccccc1Cl` (centres unmarked) [Example 94, 3-[1-(2-Chloro-phenyl)-ethylamino]-azetidine-1-carboxylic acid [4-(4-fluoro-phenoxy)-phenyl]-amide]: the IC50 was 0.54 µM. Turning to `O=C(Cc1ccc(Oc2ccc(F)cc2)cc1)N1CC(NC2CCc3cc(F)ccc32)C1` (centres unmarked) [Example 48, 1-[3-(5-Fluoro-indan-1-ylamino)-azetidin-1-yl]-2-[4-(4-fluoro-phenoxy)-phenyl]-ethanone], the IC50 was 0.69 µM. As for `CCCCOc1ccc(NC(=O)N2CC(NC3CCc4cc(F)ccc43)C2)cc1` (centres unmarked) [Example 6, 3-(5-Fluoro-indan-1-ylamino)-azetidine-1-carboxylic acid (4-butoxy-phenyl)-amide], the IC50 came to 1.2 µM.

Regarding `CC(c1ccc(F)cc1)N(C)C1CN(C(=O)Nc2cc(C(F)(F)F)ccc2F)C1` (centres unmarked) [Example 81, 3-{[1-(4-Fluoro-phenyl)-ethyl]-methyl-amino}-azetidine-1-carboxylic acid (2-fluoro-5-trifluoromethyl-phenyl)-amide], the IC50 is 8.37 µM.

Regarding `CN(C1CN(C(=O)Nc2ccc(Oc3ccc(F)cc3)cc2)C1)C1CCc2cc(F)ccc21` (centres unmarked) [Example 37, 3-[(5-Fluoro-indan-1-yl)-methyl-amino]-azetidine-1-carboxylic acid [4-(4-fluoro-phenoxy)-phenyl]-amide], the IC50 was 0.42 µM. For the compound `O=C(Nc1ccc(C(F)(F)F)cc1)N1CC(NC2CCc3cc(F)ccc3C2)C1` (centres unmarked) [Example 35, 3-(6-Fluoro-1,2,3,4-tetrahydro-naphthalen-2-ylamino)-azetidine-1-carboxylic acid (4-trifluoromethyl-phenyl)-amide], the IC50 was found to be 1.31 µM. Same read-out and setting: as for `NC(=O)C(NC1CN(C(=O)Nc2ccc(Oc3ccccc3)cc2)C1)c1ccccc1` (centres unmarked) [Example 55, 3-[(Carbamoyl-phenyl-methyl)-amino]-azetidine-1-carboxylic acid (4-phenoxy-phenyl)-amide], the figure is 7.71 µM; as for `CCCCOc1ccc(NC(=O)N2CC(N(C)C(C)c3ccc(F)cc3)C2)cc1` (centres unmarked) [Example 86, 3-{[1-(4-Fluoro-phenyl)-ethyl]-methyl-amino}-azetidine-1-carboxylic acid (4-butoxy-phenyl)-amide], 3.53 µM; as for `O=C(Nc1cccc(C(F)(F)F)c1)N1CC(NC2CCc3cc(F)ccc32)C1` (centres unmarked) [Example 24, 3-(5-Fluoro-indan-1-ylamino)-azetidine-1-carboxylic acid (3-trifluoromethyl-phenyl)-amide], 2.68 µM. For the compound `O=C(Nc1ccc(C(F)(F)F)cc1)N1CC(NC2CCc3ccccc3C2)C1` (centres unmarked) [Example 32, 3-(1,2,3,4-Tetrahydro-naphthalen-2-ylamino)-azetidine-1-carboxylic acid (4-trifluoromethyl-phenyl)-amide], the half-maximal inhibitory concentration (IC50) worked out at 0.45 µM.

In the case of `Cc1ccccc1C(C)N(C)C1CN(C(=O)Nc2ccc(C(F)(F)F)cc2)C1` (centres unmarked) [Example 110, 3-[Methyl-(1-o-tolyl-ethyl)-amino]-azetidine-1-carboxylic acid (4-trifluoromethyl-phenyl)-amide], the IC50 is 2.24 µM.

For the compound `Cc1cc(F)ccc1C(C)N(C)C1CN(C(=O)Nc2ccc(Oc3ccccc3)cc2)C1` (centres unmarked) [Example 117, 3-{[1-(4-Fluoro-2-methyl-phenyl)-ethyl]-methyl-amino}-azetidine-1-carboxylic acid (4-phenoxy-phenyl)-amide], the IC50 stood at 0.89 µM. On the same count and under the same terms, as for `CC(NC1CN(C(=O)Nc2ccc(Oc3ccccc3)cc2)C1)c1c(F)cccc1F` (centres unmarked) [Example 130, 3-[1-(2,6-Difluoro-phenyl)-ethylamino]-azetidine-1-carboxylic acid (4-phenoxy-phenyl)-amide], the figure is 0.75 µM; as for `CC(NC1CN(C(=O)Nc2ccc(Oc3ccccc3)cc2)C1)c1ccc(Oc2ccccc2)cc1` (centres unmarked) [Example 77, 3-[1-(4-Phenoxy-phenyl)-ethylamino]-azetidine-1-carboxylic acid (4-phenoxy-phenyl)-amide], 1.09 µM.

In the case of `O=C(Nc1ccc(Oc2ccc(F)cc2)c(F)c1)N1CC(NC2CCc3cc(F)ccc32)C1` (centres unmarked) [Example 11, 3-(5-Fluoro-indan-1-ylamino)-azetidine-1-carboxylic acid [3-fluoro-4-(4-fluoro-phenoxy)-phenyl]-amide], the IC50 is 0.46 µM. As to `O=C(Nc1ccc(Oc2ccccc2)cc1)N1CC(NC2CCc3cc(F)ccc32)C1` (centres unmarked) [Example 27, 3-(5-Fluoro-indan-1-ylamino)-azetidine-1-carboxylic acid (4-phenoxy-phenyl)-amide], the IC50 came to 0.27 µM. The same measure, in the same setting: as for `CCCCOc1ccc(NC(=O)N2CC(NC(C)c3ccccc3Cl)C2)cc1` (centres unmarked) [Example 71, 3-[1-(2-Chloro-phenyl)-ethylamino]-azetidine-1-carboxylic acid (4-butoxy-phenyl)-amide], the figure is 0.77 µM; as for `O=C(Nc1cccc(Oc2ccccc2)c1)N1CC(NC2CCc3cc(F)ccc32)C1` (centres unmarked) [Example 28, 3-(5-Fluoro-indan-1-ylamino)-azetidine-1-carboxylic acid (3-phenoxy-phenyl)-amide], 0.43 µM. On the same count and under the same terms, as for `Cc1ccc(C(C)N(C)C2CN(C(=O)Nc3ccc(Oc4ccccc4)cc3)C2)c(C)c1` (centres unmarked) [Example 105, 3-{[1-(2,4-Dimethyl-phenyl)-ethyl]-methyl-amino}-azetidine-1-carboxylic acid (4-phenoxy-phenyl)-amide], the figure is 0.42 µM.

The assay is the same for the next values; noted with them: hNav1.8 IC50, SH-SY-5Y cells stably expressing hNaV1.8; FLIPR membrane potential dye; 10 μM pyrethroid, 250 nM TTX; test range 100 μM-0.05 μM.
In turn, `Cc1ccccc1CC(C)NC1CN(C(=O)NC(C)c2ccc(C(F)(F)F)cc2)C1` (centres unmarked) [Example 1, 3-(1-Methyl-2-o-tolyl-ethylamino)-azetidine-1-carboxylic acid [1-(4-trifluoromethyl-phenyl)-ethyl]-amide] came in with an IC50 of 1.3 µM.
